# US9040715B2 (priority 2008, dated 2015)
# Experiments:
# [1] = tested on: Candida albicans (CAF-2); assay: Anti-fungal/anti-yeast activity: MIC50 (broth microdilution) and MFC; format: cell-based; conditions: for MIC: read-out: MIC-50
# Experimental: (§1) Fluconazole, an ergosterol inhibitor, and the beta-1,3-glucan inhibitor micafungin served as controls (See Tables 1-8).
# (§2) The minimum inhibitory concentrations resulting in 50% growth inhibition (MIC50) of […] Candida species (C. albicans, C. tropicalis and C. glabrata, C. lusitaniae, C. parapsilosis, and C. apicola) as well as Aspergillus fumigatus to a set of novel synthetic compounds was determined in accordance with the guidelines in CLSI document M27-A2 (Clinical and Laboratory Standards Institute; Wayne, Pa.). The total volume of cells and drug was 100 μL per microtiter well, and each drug was diluted in RPMI to achieve final concentrations of 0.2-100 μg/ml. Uninoculated cultures were used as a reference standard. Stock inoculum suspensions were prepared from 24 hour cultures on YPD (yeast extract/peptone/dextrose) media at 30° C. For MIC determinations, an inoculum of 1.0×10^3 cells of Candidia and 2.0×10^3 cells of Aspergillus per well were used, and cells in diluted drugs were prepared in RPMI-1640 medium. MICs were determined both visually and spectrophotometrically at 24 hours and 48 h at 550 nm using a micro plate reader. The MIC50 endpoint was measured as the lowest drug concentration resulting in a reduction of growth of 50% or more compared with growth of the control.
# (§3) The minimum fungicidal concentrations (MFCs) were determined for each drug-isolate-medium combination as follows. After 48 hours of incubation, 100 μL of each drug-isolate-medium combination (2 plates) was subcultured onto YPD plates (100 μL of solution was spread over the YPD plate). […] The plates were then incubated at 30° C. for 48 hours.
# (§4) The in vitro fungicidal activities (MFCs) were determined for each drug-isolate-medium combination as follows. After 48 hours of incubation, 10 μL each drug-isolate-medium combination was spotted onto YPD plates (10 μL of each well is spotted sequentially with positive and negative control wells). […] The plates were then incubated at 30° C. for 48 hours.
# [2] = tested on: Candida apicola; assay: as above; format: cell-based; conditions: for Activity (fungicidal/fungistatic) / MIC-50 / Ratio MFC/MIC: Candida apicola; for MFC: Starmerella apicola
# Experimental: as §1, §2, §3, §4
# [3] = tested on: Candida lusitaniae; assay: as above; format: cell-based; conditions: for Activity (fungicidal/fungistatic) / Ratio MFC/MIC: Candida lusitaniae; for MFC / MIC: Clavispora lusitaniae; for MIC: read-out: MIC-50
# Experimental: as §1, §2, §3, §4
# [4] = tested on: Aspergillus fumigatus; assay: as above; format: cell-based
# Experimental: as §1, §2, §3, §4
# [5] = tested on: Candidia parapsilosis; assay: as above; format: cell-based; conditions: for Activity (fungicidal/fungistatic) / Ratio MFC/MIC: Candidia parapsilosis; for MIC: read-out: MIC-50
# Experimental: as §1, §2, §3, §4
# [6] = tested on: Candida tropicalis; assay: as above; format: cell-based; conditions: for MIC: read-out: MIC-50
# Experimental: as §1, §2, §3, §4
# [7] = tested on: Candida glabrata; assay: as above; format: cell-based; conditions: for Activity (fungicidal/fungistatic) / Ratio MFC/MIC: Candida glabrata; for MFC / MIC: Nakaseomyces glabratus; for MIC: read-out: MIC-50
# Experimental: as §1, §2, §3, §4
# [8] = tested on: Huh7 cells; assay: Neutral red uptake assay (cytotoxicity); format: cell-based, human
# From the text: The neutral red uptake assay is a cytotoxicity test that is based on the ability of viable cells to incorporate and bind the supra-vital dye neutral red in the lysosomes. This weakly cationic dye penetrates cell membranes by non-ionic passive diffusion and concentrates in the lysosomes, where it binds by electrostatic hydrophobic bonds to anionic and phosphate groups of the lysosomal matrix. The dye is then extracted from the viable cells using an acidified ethanol solution, and the absorbance of the solubilized dye is read. When the cell dies or the pH gradient is reduced, the dye is not retained and consequently, the amount of retained dye is proportional to the number of viable cells. Most primary cells and cell lines can be used for this method. The HepG2 and Huh7, two human hepatoma cell lines, were used for this study. The cells were seeded in 96-well tissue culture plates and treated for 48 hours with the compounds. The plates were then incubated for 2 hours with a medium containing neutral red. The cells were subsequently washed, the dye was extracted in each well, and the absorbance was read using a spectrophotometer (FIG. 3 and Table 11).
# [9] = tested on: Fluconazole Resistant C. albicans; assay: microbe, parasite or virus in culture; format: cell-based; conditions: Candida albicans
# Experimental: as §2
# (§5) The MIC50 of Compounds I-1, I-2, and I-5 in several mutant strains of Candida albicans, including fluconazole resistant clinical strains, was determined according to the methods described in Example 1 (see Table 9). The activity of Compound I-1 against fluconazole resistant strains was further explored (see Table 10). In Table 10, Strain #1 is a fluconazole sensitive Candida albicans strain; Strain #17 is a fluconazole resistant Candida albicans strain; C. albicans CS#01 is a first clinical strain; C. albicans CS#02 is a second clinical strain.
# [10] = tested on: Huh7 or HepG2 cell line; assay: MTT assay (cytotoxicity); format: cell-based, human; conditions: 24 hours and 48 hours
# Experimental: The MTT assay is a colorimetric assay that measures the reduction of yellow 3-(4,5-dimethylhiazol-2-yl)-2,5-diphenyl tetrazolium bromide (MTT) by mitochondrial succinate dehydrogenase. The MTT enters the cells and passes into the mitochondria where it is reduced to an insoluble, dark purple, formazan product. The cells are then solubilized with an organic solvent (e.g., isopropanol) and the released, solubilized formazan reagent is measured spectrophotometrically. Since reduction of MTT can only occur in metabolically active cells, the level of activity is a measure of the viability of the cells.
# Cells of the Huh7 or HepG2 cell line were seeded in a 96 well plate. The plate was incubated overnight at 37° C. in a humidified incubator, 5% CO2. The test compounds were added to the plate. Different concentrations of drug were tested in triplicate along with a negative control. The final volume was adjusted to 100 μl per well. The plate was incubated overnight at 37° C. in a humidified incubator, 5% CO2. After 24 hours and 48 hours, MTT reagent (5 mg/ml, 10 μl/100 μl per well of the 96 well plate) was added and incubated at 37° C. for 3 hours. After 3 hours, 100 μl of the DMSO solution was added to each well and the plate was rocked at room temperature for 1 hour. The plate was then read on a plate reader at […].
# [11] = tested on: Saccharomyces cerevisiae (YPH501); assay: Anti-fungal/anti-yeast activity: MIC50 (broth microdilution) and MFC; format: cell-based; conditions: for MFC / MIC: Saccharomyces cerevisiae; for Activity (fungicidal/fungistatic) / Ratio MFC/MIC: Saccharomyces cerevisiae (YPH501); for MIC: read-out: MIC-50
# [12] = tested on: C. albicans Mutants; assay: MIC50 in C. albicans mutant strains; format: cell-based; conditions: Candida albicans
# Experimental: as §2, §5
structure (smiles),measurement,setting,value
CN(Cc1ccccc1)C(=O)Cn1sc2ccccc2c1=O [Compound I-1],Activity (fungicidal/fungistatic),[1],fungicidal (An MFC/MIC ratio of less than four indicates that the compound is fungicidal)
same,MFC,[1],6 µg/mL
same,Ratio MFC/MIC,[1],2
same,MIC,[1],3.2 µg/mL
same,Activity (fungicidal/fungistatic),[2],fungicidal (An MFC/MIC ratio of less than four indicates that the compound is fungicidal)
same,MIC-50,[2],3.2 µg/mL
same,Ratio MFC/MIC,[2],1
same,MFC,[2],3.2 µg/mL
same,Activity (fungicidal/fungistatic),[3],fungicidal (An MFC/MIC ratio of less than four indicates that the compound is fungicidal)
same,Ratio MFC/MIC,[3],1
same,MFC,[3],3.2 µg/mL
same,MIC,[3],3.2 µg/mL
same,Activity (fungicidal/fungistatic),[4],fungistatic (an MFC/MIC ratio of greater than four indicates that the compound is fungistatic)
same,MFC,[4],100 µg/mL
same,MIC50,[4],25 µg/mL
same,Ratio MFC/MIC,[4],4
same,MFC,[5],3.2 µg/mL
same,Activity (fungicidal/fungistatic),[5],fungicidal (An MFC/MIC ratio of less than four indicates that the compound is fungicidal)
same,Ratio MFC/MIC,[5],1
same,MIC,[5],3.2 µg/mL
same,Activity (fungicidal/fungistatic),[6],fungicidal (An MFC/MIC ratio of less than four indicates that the compound is fungicidal)
same,MFC,[6],3.2 µg/mL
same,Ratio MFC/MIC,[6],1
same,MIC,[6],3.2 µg/mL
same,Activity (fungicidal/fungistatic),[7],fungicidal (An MFC/MIC ratio of less than four indicates that the compound is fungicidal)
same,Ratio MFC/MIC,[7],2
same,MFC,[7],12.5 µg/mL
same,MIC,[7],6.2 µg/mL
same,Percentage Viability,[8]; 3.3 μg/mL (approx 1X MIC),>100%
same,Percentage Viability,[8]; 10 μg/mL (approx 3X MIC),>100%
same,Percentage Viability,[8]; 33 μg/mL (approx 10X MIC),>100%
same,Percentage Viability,[8]; 100 μg/mL (approx 30X MIC),83%
same,MIC50,"[9]; C. albicans CS#01, first clinical strain",3 µg/mL
same,MIC50,"[9]; C. albicans CS#02, second clinical strain",3 µg/mL
same,MIC50,"[9]; Strain #1, fluconazole sensitive Candida albicans strain",3 µg/mL
same,MIC50,"[9]; Strain #17, fluconazole resistant Candida albicans strain",6 µg/mL
same,Toxicity to mammalian cell lines (MTT assay),[10],minimally toxic
same,MFC,[11],3.2 µg/mL
same,Activity (fungicidal/fungistatic),[11],fungicidal (An MFC/MIC ratio of less than four indicates that the compound is fungicidal)
same,Ratio MFC/MIC,[11],2
same,MIC,[11],1.6 µg/mL
same,MIC50,[12]; C. albicans strain CAF-2,3 µg/mL
same,MIC50,[12]; C. albicans strain CHK11,3 µg/mL
same,MIC50,[12]; C. albicans strain CHK21,3 µg/mL
same,MIC50,[12]; C. albicans strain CHK23,3 µg/mL
same,MIC50,[12]; C. albicans strain GOA31,6 µg/mL
same,MIC50,[12]; C. albicans strain GOA32,3 µg/mL
O=C(Cn1sc2ccccc2c1=O)Nc1ccccc1Oc1ccccc1 [Compound I-2],Activity (fungicidal/fungistatic),[1],fungicidal (An MFC/MIC ratio of less than four indicates that the compound is fungicidal)
same,MFC,[1],3.2 µg/mL
same,Ratio MFC/MIC,[1],1
same,MIC,[1],3.2 µg/mL
same,Activity (fungicidal/fungistatic),[2],fungicidal (An MFC/MIC ratio of less than four indicates that the compound is fungicidal)
same,MIC-50,[2],6.4 µg/mL
same,Ratio MFC/MIC,[2],1
same,MFC,[2],6.4 µg/mL
same,Activity (fungicidal/fungistatic),[3],fungicidal (An MFC/MIC ratio of less than four indicates that the compound is fungicidal)
same,Ratio MFC/MIC,[3],2
same,MFC,[3],3.2 µg/mL
same,MIC,[3],1.6 µg/mL
same,Activity (fungicidal/fungistatic),[4],fungistatic (an MFC/MIC ratio of greater than four indicates that the compound is fungistatic)
same,MFC,[4],50 µg/mL
same,MIC50,[4],12.5 µg/mL
same,Ratio MFC/MIC,[4],4
same,MFC,[5],3.2 µg/mL
same,Activity (fungicidal/fungistatic),[5],fungicidal (An MFC/MIC ratio of less than four indicates that the compound is fungicidal)
same,Ratio MFC/MIC,[5],2
same,MIC,[5],1.6 µg/mL
same,Activity (fungicidal/fungistatic),[6],fungicidal (An MFC/MIC ratio of less than four indicates that the compound is fungicidal)
same,MFC,[6],3.2 µg/mL
same,Ratio MFC/MIC,[6],1
same,MIC,[6],3.2 µg/mL
same,Activity (fungicidal/fungistatic),[7],fungicidal (An MFC/MIC ratio of less than four indicates that the compound is fungicidal)
same,Ratio MFC/MIC,[7],2
same,MFC,[7],3.2 µg/mL
same,MIC,[7],1.6 µg/mL
same,Percentage Viability,[8]; 3.3 μg/mL (approx 1X MIC),>100%
same,Percentage Viability,[8]; 10 μg/mL (approx 3X MIC),>100%
same,Percentage Viability,[8]; 33 μg/mL (approx 10X MIC),>100%
same,Percentage Viability,[8]; 100 μg/mL (approx 30X MIC),75%
same,Toxicity to mammalian cell lines (MTT assay),[10],minimally toxic
same,MFC,[11],3.2 µg/mL
same,Activity (fungicidal/fungistatic),[11],fungicidal (An MFC/MIC ratio of less than four indicates that the compound is fungicidal)
same,Ratio MFC/MIC,[11],2
same,MIC,[11],1.6 µg/mL
same,MIC50,[12]; C. albicans strain CAF-2,3 µg/mL
same,MIC50,[12]; C. albicans strain CHK11,12.5 µg/mL
same,MIC50,[12]; C. albicans strain CHK21,> 100 µg/mL
same,MIC50,[12]; C. albicans strain CHK23,25 µg/mL
same,MIC50,[12]; C. albicans strain GOA31,3 µg/mL
same,MIC50,[12]; C. albicans strain GOA32,3 µg/mL
